From patent US20210292710A1, “METHOD FOR ENHANCING IMMUNE FUNCTION OF IMMUNE CELL AND IMMUNE CELL LINE PRODUCED USING THE SAME” (INDUSTRY-ACADEMIC COOPERATION FOUNDATION, YONSEI UNIVERSITY, priority 2020, published 2021)

Columns and labels:
[1] = test system: lung-cancer cell line KLN205; assay: Anti-cancer effect (tumor size) in lung-cancer cell line KLN205; type: in vivo
Method: Referring to FIG. 10A, the results of the anti-cancer effect against the lung-cancer cell line KLN205 due to the PI3K inhibitor treatment are shown. When the cell is treated with the vehicle as a control, the tumor size rapidly increases as the treatment days increase, and then the tumor size on the 15th day is 400 to 500 mm^3. However, when the cell is treated with the PI3K inhibitor, the tumor size is reduced compared to the control. More specifically, when the cell is treated with the PI3K inhibitor BKM 120 at 35 mpk, the tumor size on the 15th day is 200 to 250 mm^3. When the cell is treated with BKM 120 at 50 mpk, the tumor size on day 15 is found to be 90 to 100 mm^3.

T cells = assay: Extracellular acidification rate (ECAR) of T cells; type: cell-based, mouse
Method: Further, referring to FIG. 5B, the extracellular acidification rate (ECAR) of T cells due to PI3K inhibitor treatment is shown. In this connection, to measure the extracellular acidification rate, the T cell used in FIG. 5A is used, and 1×10^5 T cells are used. Furthermore, the extracellular acidification rate refers to a measurement of glucose degradation via a change in pH resulting from lactate secretion in the medium. In this connection, as the oligomycin is injected to inhibit mitochondrial metabolism, T cells must produce ATP using only glycolysis. Thus, the extracellular acidification rate in phase 3 may mean pure glycolysis capacity. In this connection, 2DG is a molecule in which the 2-hydroxyl group of glucose is replaced with hydrogen and thus glucose may not be degraded. Furthermore, when the T cell is treated with 2DG, the extracellular acdification rate may be controlled in an upstream phase of glucose metabolism. Thus, the extracellular acidification rate in phase 4 may refer to the glucose reserve in the cell.

GLUT1 = GLUT1 protein expression level of T cell; type: cell-based, mouse; details: CD3+ T cells activated 72 hours with anti-CD3 and anti-CD28 beads
Method: (§1) Thus, referring to FIG. 4B, the results of mRNA expression of enzymes involved in glycolysis of T cells due to PI3K inhibitor treatment are shown. In this connection, in order to identify enzymes involved in glycolysis of T cells due to PI3K inhibitor treatment, the CD3+ T cells obtained in FIG. 2 are used. Furthermore, the obtained CD3+ T cell is activated for 72 hours using anti-CD3 and anti-CD28 beads to identify mRNA expression of enzymes involved in glycolysis. In this connection, CD3 secretes cytokine as a protein immunomodulator, and CD28 inhibits apoptosis. Only CD3-activated T cells may lead to apoptosis. Therefore, both CD3 and CD28 signals are used to increase T cell function and survival. Furthermore, referring to FIG. 5A, the result of GLUT1 protein expression level of T cell due to PI3K inhibitor treatment is shown. In this connection, T cell is treated in the same method as in FIG. 4B.

AKT = AKT expression in T cells due to PI3K inhibitor and mTORC1 inhibitor treatment; type: cell-based; details: RAD001 as mTORC1 inhibitor, p<0.05
From the text: Furthermore, referring to FIG. 8, AKT and GLUT1 expression levels in T cells due to PI3K inhibitor and mTORC1 inhibitor treatment are shown. In this connection, RAD001 is used as a mTORC1 inhibitor. First, referring to (a) of FIG. 8, AKT expression levels in T cells due to PI3K inhibitor and mTORC1 inhibitor treatment are shown. […] This may mean that when mTORC1 is inhibited, AKT expression is reduced, and thus mTORC1 is an important signal capable of rebounding AKT expression.

[2] = test system: enzymes involved in glycolysis of T cells; assay: mRNA expression of enzymes involved in T cell glycolysis; type: cell-based, mouse; details: CD3+ T cells activated 72 hours with anti-CD3 and anti-CD28 beads
Method: as §1, with “survival.” for “survival. Furthermore, referring to FIG. 5A, the result of GLUT1 protein expression level of T cell due to PI3K inhibitor treatment is shown. In this connection, T cell is treated in the same method as in FIG. 4B.”

[3] = test system: lung-cancer cell line LLC2; assay: Percentage of immune cells relative to lung-cancer cell line LLC2; type: in vivo
From the text: Referring to FIG. 9B, the percentage of immune cells relative to the lung-cancer cell line LLC2 due to PI3K inhibitor treatment is shown. Referring first to FIG. 9B (a), the percentage of CD3+ CD8+ T cells relative to LLC2 as a lung-cancer cell line due to PI3K inhibitor treatment is shown. In this connection, CD3+ CD8+ T cells may refer to cytotoxic T cells (Tc cells) capable of destroying damaged cells, infected cells, and tumor cells. Next, referring to (b) of FIG. 9B, the percentage of CD3+ CD4+ CD25+ Foxp3 T cells relative to LLC2 as a lung-cancer cell line due to the PI3K inhibitor treatment is shown. In this connection, the CD3+ CD4+ CD25+ Foxp3 T cells refer to regulatory T cells (Treg) that may maintain immuno-tolerance and autoimmunity, that is, may inhibit the immune response of other cells. Next, referring to (c) of FIG. 9B, the percentage of CD3+ TIL cells relative to LLC2 as a lung-cancer cell line due to the PI3K inhibitor treatment is shown. In this connection, CD3+ TIL cell may refer to a tumor infiltrating lymphocyte (TIL) that infiltrates a tumor cell cluster, thereby enhancing the T cell's tumor killing ability, that is, an anti-cancer effect of the T cell. Next, referring to (d) of FIG. 9B, the percentage of MDSC cells relative to the lung-cancer cell line LLC2 due to the PI3K inhibitor treatment is shown. In this connection, the MDSC cell may refer to immature myeloid cells which inhibit the immune response of immune cells such as T cells and NK cells, and induce the generation of regulatory T cells (Treg), thereby to promote the growth of cancer cells.

How did the tumor size ([1]; 35 mpk, 15th day) turn out when `Nc1cc(C(F)(F)F)c(-c2cc(N3CCOCC3)nc(N3CCOCC3)n2)cn1` [BKM 120, buparlisib] was run?
The tumor size was 200 to 250 mm^3.

What about the tumor size ([1]; 50 mpk, day 15) of the same compound?
Its tumor size is 90 to 100 mm^3.

And the “extracellular acidification rate versus control” value (T cells; phase 1, 1×10^5 T cells)?
Its value is “higher”.

What about the “extracellular acidification rate versus control” value (T cells; phase 2, glucose injected) of the same compound?
The value was “the difference between the extracellular acidification rates of the T cell group treated with PI3K inhibitor and the control increases”.

And the “extracellular acidification rate versus control” value (T cells; phase 3, oligomycin injected (glycolysis capacity))?
Its value is “higher extracellular acidification rate than that of the control”.

And the “extracellular acidification rate versus control” value (T cells; phase 4, 2-deoxy-D-glucose (2DG) injected (glucose reserve))?
Its value is “higher extracellular acidification rate than that in the control”.

And the “GLUT1 expression level relative to control” value (GLUT1)?
Its value is 6 to 7 times.

What about the “percentage of T cells expressing GLUT1 among all T cells” value (GLUT1) of the same compound?
Its value is 60 to 70%.

What about the “AKT expression in iPI3K+/imTOR− group relative to iPI3K−/imTOR−, iPI3K−/imTOR+ and iPI3K+/imTOR+ groups” value (AKT) of the same compound?
The value was 1.5 to 2.3 times.

What about the “mRNA expression of each glycolysis enzyme versus spleen T cells and CD3+CD28-stimulated T cells” value [2] of the same compound?
Its value is “higher”.

And the “average percentage of CD3+ CD4+ CD25+ Foxp3 T cells (Treg)” value ([3]; 35 mpk)?
Its value is 17%.

And the “average percentage of CD3+ CD8+ T cells” value ([3]; 35 mpk)?
The value was 38%.

What about the “average percentage of MDSC cells” value ([3]; 35 mpk) of the same compound?
The value was 32%.

And the “distribution of percentage of CD3+ CD4+ CD25+ Foxp3 T cells (Treg)” value ([3]; 35 mpk)?
The value was 16 to 19%.

What about the “distribution of percentages of CD3+ CD8+ T cells” value ([3]; 35 mpk) of the same compound?
The value was 35 to 42%.

What about the “distribution of the percentage of MDSC cells” value ([3]; 35 mpk) of the same compound?
Its value is 31 to 33%.

What about the “percentage of CD3+ TIL cells on average” value ([3]; 35 mpk) of the same compound?
The value was 0.4%.

What about the “average percentage of CD3+ CD4+ CD25+ Foxp3 T cells (Treg)” value ([3]; 50 mpk) of the same compound?
Its value is 15%.

What about the “average percentage of CD3+ CD8+ T cells” value ([3]; 50 mpk) of the same compound?
Its value is 42%.

And the “average percentage of MDSC cells” value ([3]; 50 mpk)?
Its value is 24%.

What about the “distribution of percentage of CD3+ CD4+ CD25+ Foxp3 T cells (Treg)” value ([3]; 50 mpk) of the same compound?
The value was 13 to 17%.

And the “distribution of percentages of CD3+ CD8+ T cells” value ([3]; 50 mpk)?
Its value is 37 to 50%.

What about the “distribution of the percentage of MDSC cells” value ([3]; 50 mpk) of the same compound?
The value was 22 to 26%.

What about the “percentage of CD3+ TIL cells on average” value ([3]; 50 mpk) of the same compound?
Its value is 0.9%.
